According to US12162861B2, “Dopamine D3 receptor selective antagonists/partial agonists; method of making; and use thereof” (THE UNITED STATES OF AMERICA, AS REPRESENTED BY THE …, priority 2016, dated 2024):
Entries after “also recorded” stand apart in the source; their conditions may differ.

Columns and labels:
human dopamine D3R = molecular target: T1, human dopamine D3R (Homo sapiens, UniProt P35462); assay: D3R mitogenesis assay in CHO cells; assay type: cell-based; conditions: stimulation of mitogenesis, CHO cells with human D3R; read-out: Agonist EC50 ± SEM
T1 construct: expressed in transfected cells; host or cells: CHO

Long-Evans rats [1] = assay: Responding during saline substitution (extinction) testing in rats; assay type: in vivo, rat; conditions: 5 or 15 mg/kg
Description: Experiment 2. […] Following the completion of the self-administration testing, rats were allowed to self-administer oxycodone for another 4 daily sessions. […] Fifteen min after injection, they were placed in the chambers and allowed to lever-press for saline infusion for 3 hr.

opiate delta receptor = opiate delta receptor (Homo sapiens, UniProt P41143); assay: Binding to opiate delta receptor
squirrel monkeys [2] = assay: THC self-administration in squirrel monkeys (FR10); assay type: in vivo, squirrel monkey (Saimiri sciureus); conditions: FR10, 1, 3, and 10 mg/kg i.m.
Description: Subjects: Seven adult male squirrel monkeys (Saimiri sciureus) weighing 0.8 to 1.1 kg were housed in individual cages in a temperature- and humidity-controlled room with unrestricted access to water. […] The monkeys were trained to self-administer either THC or food pellets prior to the study. Monkeys were fed (approximately two hours after the session) a daily food ration consisting of biscuits of high protein monkey diet (Lab Diet 5045, PMI Nutrition International, Richmond, Indiana). The number of biscuits (8-14) was determined for each monkey individually to maintain their body weights at a constant level throughout the study. […]
Apparatus: Experimental chambers and other apparatus used in this study were the same as previously described (Justinova et al. 2003). […] The chair contained one response lever (Med Associates., USA) mounted on a transparent front wall; each press on the lever with a force greater than 0.2 N produced an audible click and was recorded as a response. […]
Self-administration procedure: Daily one-hour experimental sessions were typically conducted from Monday through Friday with each monkey. […] Before the start of the session, catheters were flushed with 1 ml of saline and one injection was delivered (calculated to fill the dead space of the catheter which was about 0.2 ml). […]

squirrel monkeys [3] = assay: THC priming-induced reinstatement of drug seeking in squirrel monkeys; assay type: in vivo, squirrel monkey (Saimiri sciureus); conditions: squirrel monkeys, 1, 3, and 10 mg/kg i.m., FIG. 9
Description: Reinstatement studies: In order to separately determine the reinstatement effects of a priming injection and drug-associated cues, we use two different extinction protocols (described below) that allow us to isolate the effects of these independent variables.
Priming-induced reinstatement: Before priming-induced reinstatement testing began, monkeys were allowed to self-administer the training dose of THC until they reached a stable baseline (5-10 sessions). In subsequent extinction sessions, lever presses led to i.v. saline infusions plus the visual cues that had been associated previously with THC. After at least two sessions of extinction, when responding had reached a low, stable level, a priming injection of THC (0.04 mg/kg i.v.) was given immediately before the next session, during which responding (FR10) continued to produce only i.v. saline injections and the discrete visual cues. […] A non-contingent i.v. injection of vehicle was also given before each extinction session as a control for the drug priming treatment.
Δ^9-tetrahydrocannabinol (THC, NIDA Drug Supply Program, Bethesda, MD, USA) was dissolved in a vehicle containing 1% Tween 80, 1% ethanol, and saline to obtain stock solution (0.4 mg/ml) and further diluted with saline. In the reinstatement tests, THC was injected i.v. (1 ml/kg) immediately before the session.

Long-Evans rats [4] = assay: Oxycodone-induced conditioned place preference (CPP) in rats; assay type: in vivo, rat
Method: CPP was tested in the place-conditioning apparatus (Med Associates, St Albans, VT) consisting of two side compartments (21×28 cm^2) and a central gray connecting area (21×12.5 cm^2); a sliding door separated each compartment from the connecting area. The two side compartments differed in wall color (black vs white), floor type (net vs grid), and illumination. Each rat was first exposed in the CPP apparatus for 15 minutes (preconditioning) and then followed by oxycodone CPP conditioning. […] Oxycodone CPP procedures consisted of 2 days of oxycodone (3 mg/kg, ip) conditioning in one compartment and 2 days of saline conditioning in another compartment, alternatively (e.g., oxycodone-saline-oxycodone-saline). The compartments paired with oxycodone or saline were counterbalanced. […] After oxycodone injection, animals were immediately confined in the assigned compartments for 40 minutes. To potentiate oxycodone CPP formation, animals received 4 days of oxycodone (3 mg/kg, ip, twice daily at 8:00 and 18:00) treatment at home cages. […] In the (Vehicle+vehicle) group, saline was paired with each compartment. Then 24 hours after the last saline or oxycodone conditioning injection, animals were placed in the same three-chamber CPP apparatus for 15 minutes and the time spent in each compartment was recorded. The CPP score was calculated by the time difference (seconds) that animal spent in drug-paired compartment versus saline-paired compartment.

T1 sequence (P35462 whole entry): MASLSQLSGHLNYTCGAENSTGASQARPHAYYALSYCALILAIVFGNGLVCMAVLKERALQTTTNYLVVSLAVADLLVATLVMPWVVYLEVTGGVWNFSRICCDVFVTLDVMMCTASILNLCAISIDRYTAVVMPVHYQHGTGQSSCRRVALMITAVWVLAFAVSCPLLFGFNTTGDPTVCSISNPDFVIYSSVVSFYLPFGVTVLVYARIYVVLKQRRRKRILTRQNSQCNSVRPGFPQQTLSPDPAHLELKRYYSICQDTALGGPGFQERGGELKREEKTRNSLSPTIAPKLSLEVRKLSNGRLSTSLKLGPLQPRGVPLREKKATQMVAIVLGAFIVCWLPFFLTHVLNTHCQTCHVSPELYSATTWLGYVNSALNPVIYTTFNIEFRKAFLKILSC
Chain of opiate delta receptor (P41143 whole entry): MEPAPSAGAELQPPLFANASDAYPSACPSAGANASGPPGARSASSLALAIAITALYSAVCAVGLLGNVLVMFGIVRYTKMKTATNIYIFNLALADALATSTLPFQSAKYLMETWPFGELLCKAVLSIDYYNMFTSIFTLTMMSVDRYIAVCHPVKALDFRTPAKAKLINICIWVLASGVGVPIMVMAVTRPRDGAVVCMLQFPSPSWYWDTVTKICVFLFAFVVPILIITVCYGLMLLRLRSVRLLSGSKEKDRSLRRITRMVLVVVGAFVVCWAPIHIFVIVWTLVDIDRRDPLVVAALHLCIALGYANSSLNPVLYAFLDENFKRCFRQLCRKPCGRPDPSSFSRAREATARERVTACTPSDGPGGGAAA

CCc1cc(Cl)c(OC)c(N2CCN(CC(O)CCNC(=O)c3cc4ccccc4[nH]3)CC2)c1 (racemic) [Compound 29, N-(4-(4-(3-chloro-5-ethyl-2-methoxyphenyl)piperazin-1-yl)-3-hydroxybutyl)-1H-indole-2-carboxamide]
EC50 (human dopamine D3R): > 8.3 µM | oxycodone seeking during extinction testing (Long-Evans rats [1]): inhibited oxycodone seeking during extinction testing | binding to opiate delta receptor (opiate delta receptor): does not bind | THC self-administration (squirrel monkeys [2]; FIG. 7): attenuates THC self-administration; also recorded: dose-dependently blocked THC self-administration | THC self-administration (squirrel monkeys [2]; FIG. 7, listed as (±)-29): attenuation of THC self-administration | THC-induced reinstatement to drug seeking (squirrel monkeys [3]): attenuates THC-induced reinstatement to drug seeking; also recorded: blocked THC-induced reinstatement of drug seeking | THC-induced reinstatement to drug seeking (squirrel monkeys [3]; listed as (±)-29): attenuation of THC-induced reinstatement to drug seeking | CPP produced by compound alone (Long-Evans rats [4]; rats, 15 mg/kg alone): did not produce CPP | oxycodone induced CPP, posthoc comparison to (Vehicle+oxycodone) group (Long-Evans rats [4]; rats, 15 mg/kg, p<0.05): significant reduction in oxycodone induced CPP | oxycodone-induced CPP (Long-Evans rats [4]; rats, 5, 15 mg/kg ip, 15 min before each oxycodone injection (3 mg/kg ip), FIG. 10): dose-dependently attenuated oxycodone-induced CPP
